Experimental data reported in the NIST ThermoML archive (doi:10.1016/j.jct.2009.05.004).

Assay: mn = molality of the nth substance listed, in mol/kg
Conditions: Liquid, Vibrating tube method

[Br-].[Br-].[Zn+2] [zinc bromide] + CCO
Conditions | mass density [kg/m3]
373.14 K, 19874 kPa, m1 = 0.9305 | 872.91
373.14 K, 24846 kPa, m1 = 1.887 | 1005.15
373.14 K, 24985 kPa, m1 = 0.05681 | 753.48
373.14 K, 25624 kPa, m1 = 0.3043 | 790.48
373.14 K, 34851 kPa, m1 = 0.3043 | 799.55
373.14 K, 39921 kPa, m1 = 0.05681 | 767.81
373.15 K, 1032 kPa, m1 = 0.05681 | 723.97
373.15 K, 1228 kPa, m1 = 0.3043 | 761.13
373.15 K, 1745 kPa, m1 = 1.49 | 926.45
373.15 K, 4944 kPa, m1 = 0.4384 | 785.45
373.15 K, 5301 kPa, m1 = 1.49 | 931.02
373.15 K, 9796 kPa, m1 = 0.1696 | 752.88
373.15 K, 10025 kPa, m1 = 0.3043 | 772.61
373.15 K, 10059 kPa, m1 = 1.49 | 936.9
373.15 K, 14641 kPa, m1 = 0.1696 | 758.82
373.15 K, 14690 kPa, m1 = 0.9305 | 867.04
373.15 K, 14903 kPa, m1 = 0.4384 | 797.84
373.15 K, 15214 kPa, m1 = 1.49 | 942.98
373.15 K, 15627 kPa, m1 = 0.05681 | 742.91
373.15 K, 19954 kPa, m1 = 1.49 | 948.31
373.15 K, 20147 kPa, m1 = 0.3043 | 784.56
373.15 K, 24995 kPa, m1 = 0.9305 | 878.38
373.15 K, 25487 kPa, m1 = 1.49 | 954.2
373.15 K, 29987 kPa, m1 = 1.49 | 958.73
373.15 K, 30014 kPa, m1 = 0.05681 | 758.65
373.15 K, 34798 kPa, m1 = 0.4384 | 818.78
373.15 K, 35026 kPa, m1 = 1.49 | 963.54
373.15 K, 35841 kPa, m1 = 0.05681 | 764.21
373.15 K, 39669 kPa, m1 = 0.1696 | 784.45
373.15 K, 39689 kPa, m1 = 0.4384 | 823.15
373.15 K, 39845 kPa, m1 = 0.3043 | 804
373.15 K, 39954 kPa, m1 = 1.49 | 967.95
373.16 K, 5415 kPa, m1 = 0.3043 | 766.72
373.16 K, 10024 kPa, m1 = 0.05681 | 735.99
373.16 K, 15428 kPa, m1 = 0.3043 | 779.16
373.16 K, 29954 kPa, m1 = 0.3043 | 794.87
373.16 K, 34801 kPa, m1 = 0.1696 | 780.13
373.16 K, 34880 kPa, m1 = 1.887 | 1014.97
373.16 K, 34946 kPa, m1 = 0.9305 | 888.07
373.17 K, 1840 kPa, m1 = 0.9305 | 851.03
373.17 K, 5196 kPa, m1 = 0.9305 | 855.41
373.17 K, 9909 kPa, m1 = 0.9305 | 861.33
373.17 K, 19733 kPa, m1 = 0.1696 | 764.71
373.17 K, 19793 kPa, m1 = 0.4384 | 803.46
373.17 K, 20061 kPa, m1 = 0.05681 | 748.07
373.17 K, 29790 kPa, m1 = 0.9305 | 883.2
373.17 K, 39725 kPa, m1 = 1.887 | 1019.24
373.17 K, 39848 kPa, m1 = 0.9305 | 892.38
393.11 K, 5006 kPa, m1 = 0.1696 | 724.69
393.12 K, 5021 kPa, m1 = 1.887 | 958.47
393.12 K, 5106 kPa, m1 = 0.9305 | 833.37
393.12 K, 20028 kPa, m1 = 0.1696 | 745.51
393.12 K, 20063 kPa, m1 = 0.4384 | 784.5
393.12 K, 25074 kPa, m1 = 0.4384 | 790.6
393.12 K, 34785 kPa, m1 = 1.887 | 995.67
393.12 K, 34930 kPa, m1 = 0.4384 | 801.35
393.12 K, 39767 kPa, m1 = 1.887 | 1000.55
393.13 K, 9820 kPa, m1 = 0.4384 | 770.68
393.13 K, 19900 kPa, m1 = 1.887 | 978.73
393.13 K, 30105 kPa, m1 = 0.9305 | 865.29
393.13 K, 39972 kPa, m1 = 0.4384 | 806.21
393.14 K, 1801 kPa, m1 = 0.9305 | 828.39
393.14 K, 5624 kPa, m1 = 0.3043 | 745.3
393.14 K, 9870 kPa, m1 = 0.9305 | 840.24
393.14 K, 14926 kPa, m1 = 0.4384 | 777.8
393.14 K, 15321 kPa, m1 = 0.05681 | 722.2
393.14 K, 19767 kPa, m1 = 0.9305 | 853.32
393.14 K, 24945 kPa, m1 = 0.3043 | 771.16
393.14 K, 29892 kPa, m1 = 0.1696 | 757.28
393.14 K, 29921 kPa, m1 = 0.05681 | 740.47
393.14 K, 29972 kPa, m1 = 0.4384 | 796.15
393.15 K, 1241 kPa, m1 = 0.05681 | 701.02
393.15 K, 1627 kPa, m1 = 0.3043 | 739.2
393.15 K, 1798 kPa, m1 = 1.887 | 953.48
393.15 K, 1921 kPa, m1 = 1.49 | 903.69
393.15 K, 5026 kPa, m1 = 1.49 | 908.13
393.15 K, 10025 kPa, m1 = 0.3043 | 751.72
393.15 K, 10167 kPa, m1 = 0.1696 | 732.24
393.15 K, 10215 kPa, m1 = 0.05681 | 714.93
393.15 K, 10412 kPa, m1 = 1.49 | 915.55
393.15 K, 15026 kPa, m1 = 1.49 | 921.63
393.15 K, 19932 kPa, m1 = 0.05681 | 728.38
393.15 K, 20215 kPa, m1 = 1.49 | 928.15
393.15 K, 24815 kPa, m1 = 0.9305 | 859.38
393.15 K, 24872 kPa, m1 = 1.887 | 984.66
393.15 K, 25654 kPa, m1 = 1.49 | 934.64
393.15 K, 29841 kPa, m1 = 0.3043 | 776.76
393.15 K, 29885 kPa, m1 = 1.887 | 990.35
393.15 K, 29954 kPa, m1 = 1.49 | 939.52
393.15 K, 35014 kPa, m1 = 1.49 | 944.97
393.15 K, 39824 kPa, m1 = 0.05681 | 750.71
393.15 K, 39865 kPa, m1 = 0.3043 | 787.01
393.15 K, 39921 kPa, m1 = 1.49 | 949.96
393.15 K, 39924 kPa, m1 = 0.1696 | 767.7
393.16 K, 1957 kPa, m1 = 0.1696 | 720.03
393.16 K, 5064 kPa, m1 = 0.05681 | 707.12
393.16 K, 14857 kPa, m1 = 0.1696 | 738.74
393.16 K, 15924 kPa, m1 = 0.3043 | 759.83
393.16 K, 24739 kPa, m1 = 0.1696 | 751.32
393.16 K, 25067 kPa, m1 = 0.05681 | 734.81
393.16 K, 34854 kPa, m1 = 0.3043 | 782.09
393.16 K, 34855 kPa, m1 = 0.1696 | 762.63
393.16 K, 34890 kPa, m1 = 0.9305 | 870.24
393.16 K, 35621 kPa, m1 = 0.05681 | 746.57
393.16 K, 39922 kPa, m1 = 0.9305 | 875.04
393.17 K, 4784 kPa, m1 = 0.4384 | 763.23
393.17 K, 14838 kPa, m1 = 0.9305 | 847.01
393.17 K, 14975 kPa, m1 = 1.887 | 972.19
393.17 K, 19958 kPa, m1 = 0.3043 | 765.06
393.18 K, 10012 kPa, m1 = 1.887 | 965.38
393.19 K, 1568 kPa, m1 = 0.4384 | 758.24
